{
  "source": "paper PMC4956231",
  "about": "“Molecular Mechanisms for Drug Hypersensitivity Induced by the Malaria Parasite’s Chloroquine Resistance Transporter” (PLoS Pathogens, 2016)",
  "key": {"PfCRT^K1 [1]": {"test_system": "PfCRT^K1", "test": "Inhibition of [3H]amantadine transport in oocytes", "type": "cell-based, Plasmodium falciparum", "conditions": "via PfCRT^K1 in oocytes", "experimental": "(§1) For each treatment, 10 oocytes were transferred to a 5 mL polystyrene round bottom tube (Falcon) and washed twice with 3.5 mL of ND96 buffer, with the residual buffer removed by pipette. […] The assay was terminated by removing the reaction buffer with a pipette and washing the oocytes twice with 3.5 mL of ice-cold ND96 buffer. Each oocyte was transferred to a separate well of a white 96-well plate (NUNC or PerkinElmer), incubated overnight at room temperature in 30 μL of 10% SDS, and mixed on an orbital shaker the following day for approximately 5 min. The lysed oocyte was then combined with 150 μL of MicroScint-40 microscintillant (PerkinElmer), the plate covered with a TopSeal-A (PerkinElmer), and the radioactivity measured with a PerkinElmer MicroBeta^2 microplate liquid scintillation analyzer."}, "76I,369F-PfCRT^K1": {"target": "76I,369F-PfCRT^K1 (Plasmodium falciparum, UniProt Q9N623, A220S/K76I/M74I/N326S/N75E/Q271E/R371I/V369F)", "sequence (Q9N623 whole entry A220S/K76I/M74I/N326S/N75E/Q271E/R371I/V369F)": "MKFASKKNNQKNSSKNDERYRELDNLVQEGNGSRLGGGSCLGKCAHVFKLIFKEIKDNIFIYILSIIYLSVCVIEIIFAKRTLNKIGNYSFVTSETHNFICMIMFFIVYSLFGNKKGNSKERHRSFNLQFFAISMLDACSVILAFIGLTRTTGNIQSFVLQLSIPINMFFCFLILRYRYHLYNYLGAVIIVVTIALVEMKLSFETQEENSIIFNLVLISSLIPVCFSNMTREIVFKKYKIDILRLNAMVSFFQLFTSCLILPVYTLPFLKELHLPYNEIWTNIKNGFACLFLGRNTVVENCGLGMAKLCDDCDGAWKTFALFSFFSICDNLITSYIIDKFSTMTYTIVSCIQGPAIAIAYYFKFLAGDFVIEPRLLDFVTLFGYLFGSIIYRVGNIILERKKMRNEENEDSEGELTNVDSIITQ", "test": "Inhibition of [3H]amantadine transport in oocytes", "type": "cell-based", "conditions": "via 76I,369F-PfCRT^K1 in oocytes", "experimental": "as §1"}, "76I-PfCRT^K1 [2]": {"target": "T1, 76I-PfCRT^K1 (Plasmodium falciparum, UniProt Q9N623, A220S/K76I/M74I/N326S/N75E/Q271E/R371I)", "T1 sequence (Q9N623 whole entry A220S/K76I/M74I/N326S/N75E/Q271E/R371I)": "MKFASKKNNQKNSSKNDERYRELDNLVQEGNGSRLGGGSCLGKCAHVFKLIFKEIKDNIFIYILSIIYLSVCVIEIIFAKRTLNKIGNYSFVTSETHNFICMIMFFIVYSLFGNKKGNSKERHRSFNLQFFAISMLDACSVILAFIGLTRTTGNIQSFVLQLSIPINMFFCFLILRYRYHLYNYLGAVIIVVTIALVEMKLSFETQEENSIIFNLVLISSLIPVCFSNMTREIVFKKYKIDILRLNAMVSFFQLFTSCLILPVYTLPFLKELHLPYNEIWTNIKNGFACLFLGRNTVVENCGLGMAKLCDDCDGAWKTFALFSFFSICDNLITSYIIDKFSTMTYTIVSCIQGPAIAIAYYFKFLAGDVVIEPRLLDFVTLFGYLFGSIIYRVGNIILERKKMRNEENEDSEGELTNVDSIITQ", "test": "Inhibition of [3H]amantadine transport in oocytes", "type": "cell-based", "conditions": "via 76I-PfCRT^K1 in oocytes", "experimental": "as §1"}, "PfCRT^CQR": {"test_system": "PfCRT^CQR", "conditions": "oocyte system, inhibitor of PfCRT^CQR; cited from earlier work"}, "[3]": {"test_system": "C=C[C@H]1C[N@@]2CC[C@H]1C[C@@H]2[C@@H](O)c1ccnc2ccc(OC)cc12", "test": "cells, lysate or membranes", "conditions": "other: transport via 76I-PfCRT^K1 in oocytes; CQ pH 6.0, quinine and quinidine pH 5.0; 27.5 °C"}, "[4]": {"test_system": "C=C[C@H]1C[N@@]2CC[C@H]1C[C@H]2[C@H](O)c1ccnc2ccc(OC)cc12", "test": "cells, lysate or membranes", "conditions": "other: transport via 76I-PfCRT^K1 in oocytes; CQ pH 6.0, quinine and quinidine pH 5.0; 27.5 °C"}, "PfCRT^Dd2 [5]": {"test_system": "PfCRT^Dd2", "test": "[3H]drug transport into Xenopus oocytes expressing PfCRT", "type": "cell-based, Plasmodium falciparum", "conditions": "oocytes expressing PfCRT^Dd2; [3H]drug […], pH 5.0, 1 μM unlabeled drug (S4 Fig)", "experimental": "as §1"}, "PfCRT^K1 [6]": {"test_system": "PfCRT^K1", "test": "[3H]drug transport into Xenopus oocytes expressing PfCRT", "type": "cell-based, Plasmodium falciparum", "conditions": "for rate of uptake mediated by PfCRT^K1, greater than that measured for PfCRT^Dd2: S4 Fig; for rate of uptake: oocytes expressing PfCRT^K1, [3H]drug […], pH 5.0, 1 μM unlabeled drug (Fig 2B, C); for rate of transport, times lower than that measured for CQ: total drug 1.25 μM vs ~12-fold higher total CQ", "experimental": "as §1"}, "76N-PfCRT^K1": {"test_system": "76N-PfCRT^K1", "test": "[3H]drug transport into Xenopus oocytes expressing PfCRT", "type": "cell-based, Plasmodium falciparum", "conditions": "transport via 76N-PfCRT^K1 in oocytes, CQ pH 6.0, quinine and quinidine pH 5.0; for Km: read-out: Apparent Km", "experimental": "as §1\nNote that noninjected oocytes and oocytes expressing PfCRT^3D7 take up [^3H]CQ to similar (low) levels via simple diffusion of the neutral species of the drug; this represents the ‘background’ level of [^3H]CQ accumulation in oocytes (refer to Martin et al. for full data and discussion)."}, "76I-PfCRT^K1 [7]": {"target": "T1, 76I-PfCRT^K1", "type": "cell-based", "conditions": "for Apparent Vmax: transport via 76I-PfCRT^K1 in oocytes, CQ pH 6.0, quinine and quinidine pH 5.0", "experimental": "as §1"}, "noninjected oocytes": {"test_system": "noninjected oocytes", "test": "[3H]drug uptake into noninjected oocytes (background accumulation)", "type": "cell-based, Xenopus laevis", "conditions": "[3H]drug […]", "experimental": "as §1"}, "PfCRT^Dd2 [8]": {"target": "PfCRT^Dd2 (Plasmodium falciparum, UniProt Q9N623, A220S/I356T/K76T/M74I/N326S/N75E/Q271E/R371I)", "sequence (Q9N623 whole entry M74I/N75E/K76T/A220S/Q271E/N326S/I356T/R371I)": "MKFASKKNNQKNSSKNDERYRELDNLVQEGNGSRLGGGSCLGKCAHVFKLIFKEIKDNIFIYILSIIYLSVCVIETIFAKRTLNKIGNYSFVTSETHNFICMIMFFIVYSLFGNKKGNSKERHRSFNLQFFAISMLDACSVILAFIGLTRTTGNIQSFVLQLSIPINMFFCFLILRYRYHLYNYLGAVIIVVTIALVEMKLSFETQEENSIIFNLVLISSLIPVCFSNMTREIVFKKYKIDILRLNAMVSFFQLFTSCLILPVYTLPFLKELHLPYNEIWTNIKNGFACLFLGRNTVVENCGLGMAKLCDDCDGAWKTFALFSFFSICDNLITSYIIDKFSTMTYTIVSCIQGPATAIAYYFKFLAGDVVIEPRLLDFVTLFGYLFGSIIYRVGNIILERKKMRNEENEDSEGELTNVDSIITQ", "type": "cell-based", "conditions": "extracellular concentrations of 1 and 2 mM; pH 5.5; 15 μM unlabeled CQ", "procedure": "The uptake of [^3H]CQ (0.25 μM) was measured in the absence (solvent control) or presence of the test compounds (extracellular concentrations of 1 and 2 mM). The assays were conducted at pH 5.5 and in the presence of 15 μM unlabeled CQ."}, "[9]": {"test_system": "noninjected oocytes and oocytes expressing PfCRT variants or PfNT1", "test": "Trans-stimulation of [3H]CQ uptake by microinjected compound, all oocyte types", "type": "cell-based, Plasmodium falciparum", "conditions": "any of the oocyte types, estimated intracellular concentrations 5 and 10 mM", "experimental": "A subset of experiments measured the ability of unlabeled amantadine to trans-stimulate the uptake of [^3H]CQ into the oocyte. Immediately prior to the commencement of the experiment, the oocytes (days 3–4 post-injection of the cRNA) were microinjected with either amantadine (estimated intracellular concentrations of 1, 2.5, 5, 10, 15, or 20 mM) or a control treatment (buffer, spermine, or histidine; the estimated intracellular concentrations of spermine and histidine were 5 and 10 mM). The volume injected was 50 nL and the intracellular concentrations were calculated using previous estimates of the volume of stage V-VI oocytes (~400 nL [77]). The resealed oocytes were then incubated at 16–18°C in OR^2+ buffer for approximately 5 min and the influx of [^3H]CQ was measured as described above. […] The Michaelis-Menten equation was then fitted to the data to derive the kinetic parameters for the trans-stimulation of [^3H]CQ transport by amantadine."}, "[10]": {"test_system": "parasites carrying isoforms of PfCRT^CQR", "conditions": "in vitro studies, cited from earlier work"}, "[11]": {"conditions": "transport via PfCRT^K1 in oocytes, CQ pH 6.0, quinine and quinidine pH 5.0"}, "[12]": {"conditions": "pH 5.0, 1 μM unlabeled drug (Fig 2B, C)"}, "[13]": {"conditions": "pH 5.0, 1 μM unlabeled drug (S4 Fig)"}, "[14]": {"conditions": "artemisinin and/or dihydroartemisinin"}},
  "note": "Like-named read-outs stand apart in the source and are kept apart here. Marks after values point to notes of the source that are not given here.",
  "data": [
    {"compound": "CC(C)(C)NC(=O)[C@@H]1C[C@@H]2CCCC[C@@H]2CN1C[C@@H](O)[C@H](Cc1ccccc1)NC(=O)[C@H](CC(N)=O)NC(=O)c1ccc2ccccc2n1", "note": "[saquinavir]", "values": [
      {"measurement": "effect on [3H]amantadine transport", "setting": "PfCRT^K1 [1]", "value": "inhibited"},
      {"measurement": "effect on [3H]amantadine transport", "setting": "76I,369F-PfCRT^K1", "value": "inhibited"},
      {"measurement": "effect on [3H]amantadine transport", "setting": "76I-PfCRT^K1 [2]", "value": "inhibited"},
      {"measurement": "IC50", "setting": "PfCRT^CQR", "value": "13 ± 1", "unit": "µM"}
    ]},
    {"compound": "COc1ccc(CCN(C)CCCC(C#N)(c2ccc(OC)c(OC)c2)C(C)C)cc1OC", "note": "(centres unmarked) [verapamil]", "values": [
      {"measurement": "effect on [3H]amantadine transport", "setting": "PfCRT^K1 [1]", "value": "inhibited"},
      {"measurement": "effect on [3H]amantadine transport", "setting": "76I,369F-PfCRT^K1", "value": "inhibited"},
      {"measurement": "effect on [3H]amantadine transport", "setting": "76I-PfCRT^K1 [2]", "value": "inhibited"}
    ]},
    {"compound": "76I-PfCRT^K1 (Plasmodium falciparum; A220S/K76I/M74I/N326S/N75E/Q271E/R371I)", "values": [
      {"measurement": "Km", "setting": "[3]", "value": "24.1 ± 3.0^f (6) μM"},
      {"measurement": "Km", "setting": "[4]", "value": "0.42 ± 0.04^c,f (4) μM"}
    ]},
    {"compound": "C=C[C@H]1C[N@@]2CC[C@H]1C[C@@H]2[C@@H](O)c1ccnc2ccc(OC)cc12", "note": "[quinidine]", "values": [
      {"measurement": "rate of uptake", "setting": "PfCRT^Dd2 [5]", "value": "0.30 ± 0.07", "unit": "pmol per oocyte/h"},
      {"measurement": "rate of uptake mediated by PfCRT^K1, greater than that measured for PfCRT^Dd2", "setting": "PfCRT^K1 [6]", "value": "17–35%"},
      {"measurement": "rate of uptake", "setting": "PfCRT^K1 [6]", "value": "0.38 ± 0.08", "unit": "pmol per oocyte/h"},
      {"measurement": "rate of transport, times lower than that measured for CQ", "setting": "PfCRT^K1 [6]", "value": "10–15 times"},
      {"measurement": "Apparent Vmax", "setting": "PfCRT^K1 [6]; [11]", "value": "24.4 ± 1.6 (7) pmol per oocyte/h"},
      {"measurement": "Km", "setting": "PfCRT^K1 [6]; transport via PfCRT^K1 in oocytes, CQ pH 6.0, quinine and quinidine pH 5.0, 76K-PfCRT^K1 control subtracted, read-out: Apparent Km", "value": "84 ± 1", "unit": "µM"},
      {"measurement": "Apparent Vmax", "setting": "76N-PfCRT^K1", "value": "14.1 ± 0.9^e,g (6) pmol per oocyte/h"},
      {"measurement": "Km", "setting": "76N-PfCRT^K1", "value": "94 ± 4", "unit": "µM"},
      {"measurement": "Apparent Vmax", "setting": "76I-PfCRT^K1 [7]", "value": "7.2 ± 0.5^e,g (6) pmol per oocyte/h"},
      {"measurement": "rate of uptake", "setting": "noninjected oocytes; [12]", "value": "0.063 ± 0.010", "unit": "pmol per oocyte/h"},
      {"measurement": "rate of uptake", "setting": "noninjected oocytes; [13]", "value": "0.05 ± 0.01", "unit": "pmol per oocyte/h"}
    ]},
    {"compound": "C=C[C@H]1C[N@@]2CC[C@H]1C[C@H]2[C@H](O)c1ccnc2ccc(OC)cc12", "note": "[quinine]", "values": [
      {"measurement": "rate of uptake", "setting": "PfCRT^Dd2 [5]", "value": "0.44 ± 0.04", "unit": "pmol per oocyte/h"},
      {"measurement": "rate of uptake mediated by PfCRT^K1, greater than that measured for PfCRT^Dd2", "setting": "PfCRT^K1 [6]", "value": "17–35%"},
      {"measurement": "rate of uptake", "setting": "PfCRT^K1 [6]", "value": "0.55 ± 0.03", "unit": "pmol per oocyte/h"},
      {"measurement": "rate of transport, times lower than that measured for CQ", "setting": "PfCRT^K1 [6]", "value": "10–15 times"},
      {"measurement": "Apparent Vmax", "setting": "PfCRT^K1 [6]; [11]", "value": "10.3 ± 0.8 (7) pmol per oocyte/h"},
      {"measurement": "Apparent Vmax", "setting": "76N-PfCRT^K1", "value": "13.0 ± 1.0^d,f (6) pmol per oocyte/h"},
      {"measurement": "Km", "setting": "76N-PfCRT^K1", "value": "41 ± 2.6", "unit": "µM"},
      {"measurement": "Vmax of 76I-PfCRT^K1, times lower than the value obtained for PfCRT^K1", "setting": "76I-PfCRT^K1 [7]; quinine transport", "value": "~ 115 times"},
      {"measurement": "Apparent Vmax", "setting": "76I-PfCRT^K1 [7]", "value": "0.09 ± 0.01^c,f (4) pmol per oocyte/h"},
      {"measurement": "rate of uptake", "setting": "noninjected oocytes; [12]", "value": "0.10 ± 0.01", "unit": "pmol per oocyte/h"},
      {"measurement": "rate of uptake", "setting": "noninjected oocytes; [13]", "value": "0.10 ± 0.01", "unit": "pmol per oocyte/h"}
    ]},
    {"compound": "NCCCNCCCCNCCCN", "note": "[spermine]", "values": [
      {"measurement": "effect on accumulation of [3H]CQ in oocytes expressing PfCRT", "setting": "PfCRT^Dd2 [8]", "value": "do not inhibit"},
      {"measurement": "effect on [3H]CQ uptake (trans-stimulation)", "setting": "[9]", "value": "neither spermine nor histidine altered"}
    ]},
    {"compound": "CCCCN(CCCC)CC(O)c1cc(Cl)cc2c1-c1ccc(Cl)cc1/C2=C/c1ccc(Cl)cc1", "note": "(centres unmarked) [lumefantrine]", "values": [
      {"measurement": "decrease in the IC50 induced by isoforms of PfCRT^CQR (hypersensitivity)", "setting": "[10]", "value": "1.5–3.2 fold"}
    ]},
    {"compound": "N[C@@H](Cc1c[nH]cn1)C(=O)O", "note": "[histidine]", "values": [
      {"measurement": "effect on accumulation of [3H]CQ in oocytes expressing PfCRT", "setting": "PfCRT^Dd2 [8]", "value": "do not inhibit"},
      {"measurement": "effect on [3H]CQ uptake (trans-stimulation)", "setting": "[9]", "value": "neither spermine nor histidine altered"}
    ]},
    {"compound": "C[C@@H]1CC[C@H]2[C@@H](C)C(=O)O[C@@H]3O[C@@]4(C)CC[C@@H]1[C@]32OO4", "note": "[artemisinin]", "values": [
      {"measurement": "decrease in the IC50 induced by isoforms of PfCRT^CQR (hypersensitivity)", "setting": "[10]; [14]", "value": "1.9–3.7 fold"}
    ]},
    {"compound": "C[C@H]1[C@@H](O)O[C@@H]2O[C@@]3(C)CC[C@H]4[C@H](C)CC[C@@H]1[C@@]24OO3", "note": "[dihydroartemisinin]", "values": [
      {"measurement": "decrease in the IC50 induced by isoforms of PfCRT^CQR (hypersensitivity)", "setting": "[10]; [14]", "value": "1.9–3.7 fold"}
    ]}
  ]
}
